Counter-ions that a name gives are not always drawn.

Turning to `CCN([C@H]1CC[C@H](c2ccc3[nH]c(=O)oc3c2)CC1)[C@H](C)CCc1ccccc1` (as salt: HCl) [Example 27, 6-(trans-4-{Ethyl-[(R)-1-methyl-3-phenylpropyl]amino}cyclohexyl)-3H-benzoxazol-2-one], the melting point – broadly, the temperature of the solid-liquid transition – is 139 to 158 °C.

`CCN([C@H]1CC[C@H](c2ccc3[nH]c(=O)oc3c2)CC1)[C@@H](C)CCc1ccccc1` (as salt: HCl) [Example 28, 6-(trans-4-{Ethyl-[(S)-1-methyl-3-phenylpropyl]amino}cyclohexyl)-3H-benzoxazol-2-one]: the melting point lay within 221 to 246 °C.

Take `O=c1[nH]c2ccc([C@H]3CC[C@H](N(CCO)CCCc4ccc(F)cc4)CC3)cc2o1` (as salt: HCl) [Example 29, 6-{trans-4-[[3-(4-Fluorophenyl)propyl]-(2-hydroxyethyl)amino]cyclohexyl}-3H-benzoxazol-2-one]: the melting point lay in the range of 259 to 262 °C.

For `O=c1[nH]c2ccc([C@H]3CC[C@H](N(CCCc4ccc(F)cc4)CC4CC4)CC3)cc2o1` (as salt: HCl) [Example 30, 6-(trans-4-{Cyclopropylmethyl-[3-(4-fluorophenyl)propyl]amino}cyclohexyl)-3H-benzoxazol-2-one], the melting point lay in the range of 221 to 225 °C.

`O=c1[nH]c2ccc([C@H]3CC[C@H](N(CCCc4ccc(F)cc4)Cc4ccoc4)CC3)cc2o1` (as salt: HCl) [Example 31, 6-(trans-4-{[3-(4-Fluorophenyl)propyl]furan-3-ylmethylamino}cyclohexyl)-3H-benzoxazol-2-one] came in with a melting point of 225 to 227 °C.

`C=CCN(CCCc1ccc(F)cc1)[C@H]1CC[C@H](c2ccc3[nH]c(=O)oc3c2)CC1` (as salt: HCl) [Example 32, 6-(trans-4-{Allyl-[3-(4-fluorophenyl)propyl]amino}cyclohexyl)-3H-benzoxazol-2-one]: the melting point lay within 224 to 230 °C.

Regarding `CC(C)CN(CCCc1ccc(F)cc1)[C@H]1CC[C@H](c2ccc3[nH]c(=O)oc3c2)CC1` (as salt: HCl) [Example 33, 6-(trans-4-{[3-(4-Fluorophenyl)propyl]isobutylamino}cyclohexyl)-3H-benzoxazol-2-one], the melting point lay within 199 to 201 °C.

Molecule `NC(=O)CN(CCCc1ccc(F)cc1)[C@H]1CC[C@H](c2ccc3[nH]c(=O)oc3c2)CC1` (as salt: HCl) [Example 34, 2-{[3-(4-Fluorophenyl)propyl]-[4-(2-oxo-2,3-dihydro-benzoxazol-6-yl)-cyclohexyl]amino}acetamide] yielded a melting point of 266 to 270 °C.

As to `NCCN(CCCc1ccc(F)cc1)[C@H]1CC[C@H](c2ccc3[nH]c(=O)oc3c2)CC1` (as salt: HCl) [Example 35, 6-(trans-4-{(2-Aminoethyl)-[3-(4-fluorophenyl)propyl]amino}cyclohexyl)-3H-benzoxazol-2-one], the melting point was 161 to 169 °C.

`CN(CCCc1ccc(F)c(F)c1)[C@H]1CC[C@H](c2ccc3[nH]c(=O)oc3c2)CC1` (as salt: HCl) [Example 40b, 6-(trans-4-{[3-(3,4-Difluorophenyl)propyl]methylamino}cyclohexyl)-3H-benzoxazol-2-one] returned a melting point of 224 to 227 °C.

As to `CN(CCCc1ccc(Cl)cc1F)[C@H]1CC[C@H](c2ccc3[nH]c(=O)oc3c2)CC1` (as salt: HCl) [Example 45b, 6-(trans-4-{[3-(4-Chloro-2-fluorophenyl)propyl]methylamino}cyclohexyl)-3H-benzoxazol-2-one], the melting point lay in the range of 274 to 275 °C.

With `CN(CCCc1ccccc1F)[C@H]1CC[C@H](c2ccc3[nH]c(=O)oc3c2)CC1` (as salt: HCl) [Example 46b, 6-(trans-4-{[3-(2-Fluorophenyl)propyl]methylamino}cyclohexyl)-3H-benzoxazol-2-one], the melting point fell in the range of 242 to 246 °C.

Source of the values: patent US6794402B2, “Bicyclic cyclohexylamines and their use as NMDA receptor antagonists” (Warner-Lambert Company, priority 2000, dated 2004).
